In paper PMC11267568 (2024):

Experiments:
Assay in all cases: in-line probing
[1] = system: r10-1G (RNA, aptamer) GGCUGGCUUCGGCCUCGCGUGGAUAUGGCACGCGUAGAAGGGCACCGUAAAUGUCCUACUU; settings: 10 mM MgCl2, 50 mM KCl (1x of 2x buffer); 25 mM Tris-HCl pH 8.3 (1x), room temperature, ~48 h
[2] = system: 11-19 (RNA, aptamer) GGCUACCGCCGCUGGGCUCUCGGGACGACACUGAGGGAACGCGUGGAUAUGGCACGCAACAGCGGGCACCGUAAAUGUCCUGGCGGUAGUCGACCCGAUGGACACUGUCGGCGUAG; settings: 10 mM MgCl2, 50 mM KCl (1x of 2x buffer); 0.1 to 10 μM branaplam
[3] = system: 11-19A (RNA, aptamer) GGCUACCGCCGCUGGGCUCUCGGGACGACACUGAGGGAACGCGUGGAUAUGGCACGCAACAGCGGGCACCGUAAAUGUCCUGGCGGUAGUC; settings: 10 mM MgCl2, 50 mM KCl (1x of 2x buffer); 25 mM Tris-HCl pH 8.3 (1x), room temperature, ~48 h
[4] = system: r10-2 (RNA, aptamer) GGACCUCGAGGCUACCGCAGCUGGCUCUCGGACGACUAUGCCUCGCGUGGAUAUGGCACGCGUAGAAGGGCACCGUAAAUGUCCUACUUGCGGUAGUCAUCCCGAUGGA; settings: 10 mM MgCl2, 50 mM KCl (1x of 2x buffer); 25 mM Tris-HCl pH 8.3 (1x), room temperature, ~48 h
[5] = system: r10-1N (RNA, aptamer) GGCCUCGCGUGGAUAUGGCACGCGUAGAAGGGCACCGUAAAUGUCCUA; settings: 10 mM MgCl2, 50 mM KCl (1x of 2x buffer); 25 mM Tris-HCl pH 8.3 (1x), room temperature, ~48 h
[6] = system: r10-1C (RNA, aptamer) GGCUACCGCGGCUGGCUUCGGCCUCGCGUGGAUAUGGCACGCGUAGAAGGGCACCGUAAAUGUCCUACUUGCGGUAGUC; settings: 10 mM MgCl2, 50 mM KCl (1x of 2x buffer); 25 mM Tris-HCl pH 8.3 (1x), room temperature, ~48 h
[7] = system: 11-1 (RNA, aptamer) GGCUACCGCCGCUGGCUCUCGGGCGACUGUGCCUCGCGUGGAUAUGGCACGCGUAGAAGGGCACCGUAAAUGUCCUACUUGCGGUAGUCAUCCCGAUGGACACUGUCGGCGUAG; settings: 10 mM MgCl2, 50 mM KCl (1x of 2x buffer); 25 mM Tris-HCl pH 8.3 (1x), room temperature, ~48 h
[8] = system: r10-3 (RNA, aptamer) GGACCUCGAGGCUACCGCGGCUGGCUCUCGGACGACUGUGCCUCGCGUGGAUAUGGCACGCGUAGAAGGACACCGUAAAUGUCCUACUUGCGGUAGUCAUCCCGAUGGA; settings: 10 mM MgCl2, 50 mM KCl (1x of 2x buffer); 25 mM Tris-HCl pH 8.3 (1x), room temperature, ~48 h
[9] = system: r10-4 (RNA, aptamer) GGACCUCGAGGCUACCGCGGCUGGCUCUCGGACGACUAUGCCUCGCGUGGAUAUGGCACGCGUAGAAGGGCACCGUAAAUGCCCUACUUGCGGUAGUCAUCCCGAUGGA; settings: 10 mM MgCl2, 50 mM KCl (1x of 2x buffer); 25 mM Tris-HCl pH 8.3 (1x), room temperature, ~48 h
[10] = system: r10-1 (RNA, aptamer) GGACCUCGAGGCUACCGCGGCUGGCUCUCGGACGACUAUGCCUCGCGUGGAUAUGGCACGCGUAGAAGGGCACCGUAAAUGUCCUACUUGCGGUAGUCAUCCCGAUGGA; settings: 10 mM MgCl2, 50 mM KCl (1x of 2x buffer); 25 mM Tris-HCl pH 8.3 (1x), room temperature, ~48 h
[11] = system: r10-1C-M1 (RNA, aptamer) GGCUACCGCGGCUGGCUUCGGCCUCGCGUGGAUAUAACACGCGUAGAAGGGCACCGUAAAUGUCCUACUUGCGGUAGUC; settings: 10 mM MgCl2, 50 mM KCl (1x of 2x buffer); up to 10 μM branaplam; 25 mM Tris-HCl pH 8.3, room temperature
[12] = system: t14-4 (RNA, aptamer) GGCUGAUCUCCCAUCGGUAUGCCCUUCUGUGUGAAGGCGGUACUAAUGCCGGAGUGUAGAAACUGGAUAAUGCCAGUUAGUGGUAUGGAGAUACUACGACGCACGC; settings: 10 mM MgCl2, 50 mM KCl (1x of 2x buffer); 25 mM Tris-HCl pH 8.3 (1x), room temperature, ~48 h
[13] = system: 11-1B (RNA, aptamer) GGCUACCGCCGCUGGCUCUCGGGCGACUGUGCCUCGCGUGGAUAUGGCACGCGUAGAAGGGCACCGUAAAUGUCCUACUUGCGGUAGUC; settings: 10 mM MgCl2, 50 mM KCl (1x of 2x buffer); 25 mM Tris-HCl pH 8.3 (1x), room temperature, ~48 h
[14] = system: r10-1H (RNA, aptamer) GGCCUCGCGUGGAUAUGGCACGCGUAGAAGGGCACCGUAAAUGUCCUACUU; settings: 10 mM MgCl2, 50 mM KCl (1x of 2x buffer); 25 mM Tris-HCl pH 8.3 (1x), room temperature, ~48 h

`CC1(C)CC(Oc2ccc(-c3ccc(-c4cn[nH]c4)cc3O)nn2)CC(C)(C)N1` was tested, and the KD [1] was 352 ± 21 nM, the binding [2] was “yes” and the KD [3] was 846 ± 127 nM. The KD [4] was 623 ± 55 nM, the KD [5] was 150 ± 26 nM and the KD [6] was 400 ± 43 nM. It also gave a KD [7] of 2440 ± 1030 nM, a KD [8] of 964 ± 382 nM and a KD [9] of 634 ± 74 nM. For the same compound, the KD [10] was 420 ± 41 nM, the binding [11] was “no” and the KD [12] was 2270 ± 150 nM. For the same compound, the KD [13] was 1170 ± 170 nM and the KD [14] was 311 ± 19 nM.
